According to ChEMBL document CHEMBL1921764, “Substrate profiling of IGF-1R and InsR: identification of a potent pentamer substrate” (Bioorg Med Chem Lett, 2011):
The source made the active and inactive calls. The rule behind the calls is not given here. Peptide text beside a SMILES is read from it.

Tests used:
[1] = target: Insulin-like growth factor 1 receptor (Homo sapiens) (UniProt P08069); experiment: Activity of pre-activated human GST-His6-tagged IGF-1R assessed as compound phosphorylation at 500 uM measured every 2 mins for 60 mins by ADP-Quest assay
Sequence of Insulin-like growth factor 1 receptor (Homo sapiens) (P08069 31-736 limits assumed): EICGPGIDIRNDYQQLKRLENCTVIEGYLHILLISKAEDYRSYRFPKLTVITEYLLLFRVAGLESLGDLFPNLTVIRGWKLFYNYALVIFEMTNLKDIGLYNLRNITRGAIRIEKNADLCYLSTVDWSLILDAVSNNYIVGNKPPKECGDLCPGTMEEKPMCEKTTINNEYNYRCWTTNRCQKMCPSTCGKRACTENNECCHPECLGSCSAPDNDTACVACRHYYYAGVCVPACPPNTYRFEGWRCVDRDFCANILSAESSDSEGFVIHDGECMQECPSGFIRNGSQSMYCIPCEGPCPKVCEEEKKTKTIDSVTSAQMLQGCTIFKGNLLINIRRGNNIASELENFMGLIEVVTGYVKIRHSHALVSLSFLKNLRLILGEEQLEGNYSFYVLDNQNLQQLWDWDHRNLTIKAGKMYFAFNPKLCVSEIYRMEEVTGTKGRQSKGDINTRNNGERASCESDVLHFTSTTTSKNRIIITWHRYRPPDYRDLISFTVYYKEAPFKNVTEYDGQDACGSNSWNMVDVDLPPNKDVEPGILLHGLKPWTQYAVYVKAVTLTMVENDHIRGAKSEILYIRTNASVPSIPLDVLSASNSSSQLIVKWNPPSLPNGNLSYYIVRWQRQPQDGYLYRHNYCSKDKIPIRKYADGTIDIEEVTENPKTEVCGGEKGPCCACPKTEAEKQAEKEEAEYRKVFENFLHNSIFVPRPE
Sequence of Insulin-like growth factor 1 receptor (Homo sapiens) (P08069 741-1367 limits assumed): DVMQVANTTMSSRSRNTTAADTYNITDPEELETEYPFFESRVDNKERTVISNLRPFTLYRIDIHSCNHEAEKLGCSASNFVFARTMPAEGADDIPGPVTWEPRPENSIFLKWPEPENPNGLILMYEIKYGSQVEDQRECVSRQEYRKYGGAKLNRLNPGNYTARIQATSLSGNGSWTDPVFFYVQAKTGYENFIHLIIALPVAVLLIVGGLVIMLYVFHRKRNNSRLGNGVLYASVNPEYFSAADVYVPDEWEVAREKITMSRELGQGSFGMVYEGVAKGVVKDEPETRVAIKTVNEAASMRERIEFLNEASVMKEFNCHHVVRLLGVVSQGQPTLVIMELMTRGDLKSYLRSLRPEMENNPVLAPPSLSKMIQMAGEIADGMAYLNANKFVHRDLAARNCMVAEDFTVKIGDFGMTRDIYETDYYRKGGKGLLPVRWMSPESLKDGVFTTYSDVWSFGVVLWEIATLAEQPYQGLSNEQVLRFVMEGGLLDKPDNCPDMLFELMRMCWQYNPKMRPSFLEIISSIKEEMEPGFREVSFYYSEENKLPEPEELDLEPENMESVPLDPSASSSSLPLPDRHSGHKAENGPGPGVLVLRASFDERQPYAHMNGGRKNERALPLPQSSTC

[2] = target: Insulin receptor (Homo sapiens) (UniProt P06213); experiment: Activity of pre-activated human GST-His6-tagged InsR assessed as compound phosphorylation at 500 uM measured every 2 mins for 60 mins by ADP-Quest assay
Sequence of Insulin receptor (Homo sapiens) (P06213 28-758 limits assumed): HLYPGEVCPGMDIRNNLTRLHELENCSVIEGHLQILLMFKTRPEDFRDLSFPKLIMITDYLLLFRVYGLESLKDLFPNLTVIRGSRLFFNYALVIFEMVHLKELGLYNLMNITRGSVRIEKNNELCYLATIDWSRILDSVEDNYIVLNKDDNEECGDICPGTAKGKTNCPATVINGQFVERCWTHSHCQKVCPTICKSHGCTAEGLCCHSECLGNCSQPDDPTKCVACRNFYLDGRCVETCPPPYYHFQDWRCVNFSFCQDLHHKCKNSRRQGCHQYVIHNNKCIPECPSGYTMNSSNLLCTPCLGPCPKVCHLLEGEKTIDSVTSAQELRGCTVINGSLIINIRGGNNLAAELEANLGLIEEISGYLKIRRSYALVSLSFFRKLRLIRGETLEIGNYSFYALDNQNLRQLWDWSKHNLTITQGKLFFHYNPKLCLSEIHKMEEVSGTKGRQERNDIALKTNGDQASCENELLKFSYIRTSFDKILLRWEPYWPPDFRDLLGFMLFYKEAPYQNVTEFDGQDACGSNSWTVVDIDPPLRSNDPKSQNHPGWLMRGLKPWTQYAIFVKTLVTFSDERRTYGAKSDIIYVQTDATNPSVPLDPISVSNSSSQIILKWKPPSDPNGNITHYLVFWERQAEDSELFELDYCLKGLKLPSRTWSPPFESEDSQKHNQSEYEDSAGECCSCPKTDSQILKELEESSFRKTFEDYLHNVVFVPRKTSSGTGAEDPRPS
Sequence of Insulin receptor (Homo sapiens) (P06213 763-1382 limits assumed): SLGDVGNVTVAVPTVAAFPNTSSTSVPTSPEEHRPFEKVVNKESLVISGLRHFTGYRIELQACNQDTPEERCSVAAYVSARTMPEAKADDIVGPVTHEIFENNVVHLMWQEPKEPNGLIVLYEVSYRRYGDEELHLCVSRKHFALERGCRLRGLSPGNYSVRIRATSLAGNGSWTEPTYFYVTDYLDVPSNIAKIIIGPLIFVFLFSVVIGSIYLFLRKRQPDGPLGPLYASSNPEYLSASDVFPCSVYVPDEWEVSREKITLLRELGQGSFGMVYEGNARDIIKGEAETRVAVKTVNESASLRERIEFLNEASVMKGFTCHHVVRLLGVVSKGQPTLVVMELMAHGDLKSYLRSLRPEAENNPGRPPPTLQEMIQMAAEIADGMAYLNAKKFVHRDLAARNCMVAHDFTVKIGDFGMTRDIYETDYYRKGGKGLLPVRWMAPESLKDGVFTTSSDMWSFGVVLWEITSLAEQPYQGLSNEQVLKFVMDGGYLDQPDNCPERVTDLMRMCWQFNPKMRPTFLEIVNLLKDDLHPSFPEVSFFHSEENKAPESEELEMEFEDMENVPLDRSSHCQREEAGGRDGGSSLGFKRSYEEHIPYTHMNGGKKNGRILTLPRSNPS

| Molecule | Activity [1] | Activity [2] |
| --- | --- | --- |
| N[C@@H](CC(=O)O)C(=O)N[C@@H](Cc1ccc(O)cc1)C(=O)N[C@@H](Cc1ccccc1)C(=O)N[C@@H](CCC(=O)O)C(=O)O (H-DYFE-OH) | inactive | inactive |
| N[C@@H](Cc1ccc(O)cc1)C(=O)N[C@@H](Cc1ccccc1)C(=O)N[C@@H](CCC(=O)O)C(=O)O (H-Tyr-Phe-Glu-OH) | inactive | inactive |
| N[C@@H](Cc1ccc(O)cc1)C(=O)N[C@@H](Cc1ccccc1)C(=O)N[C@@H](CCC(=O)O)C(=O)N[C@@H](Cc1c[nH]c2ccccc12)C(=O)O (H-YFEW-OH) | – | inactive |
| H-EQEDEPEGAYFEWLE-OH | inactive | inactive |
| H-EQEDEPEGDYFEALE-OH | inactive | inactive |
| H-GDYFE-OH | – | inactive |
| H-GEYVN-OH | inactive | inactive |
| H-KKKSPGEYVNAEFG-OH | inactive | inactive |
| H-KKKSPGEYVNIEAG-OH | inactive | inactive |
| H-KSPGEYVNIE-OH | inactive | inactive |
| H-PGEYVN-OH | inactive | inactive |
| H-PGEYVNI-OH | inactive | inactive |
| H-SPGEYVNI-OH | inactive | inactive |
| H-SPGEYVNIE-OH | inactive | inactive |
